Reference: US20130116263A1, “PAK INHIBITORS FOR THE TREATMENT OF CELL PROLIFERATIVE DISORDERS” (AFRAXIS, INC., priority 2011, published 2013)
Like-named read-outs stand apart in the source and are kept apart here.

Tests used:
PAK1 = PAK1 (Homo sapiens, UniProt Q13153); experiment: Additional in vitro PAK1 inhibition assay at ATP 10 uM and 1 mM; type: biochemical
Protocol: (§1) Similar in vitro PAK1 and PAK-4 inhibition assays are conducted in compounds for the treatment of cancer, but under ATP concentrations of 10 uM and 1 mM.

PAK4 = PAK4 (Homo sapiens, UniProt O96013); experiment: Additional in vitro PAK-4 inhibition assay at ATP 10 uM and 1 mM; type: biochemical; conditions: 10 μM ATP; read-out: PAK4 IC50 (10 μM ATP)
PAK4, sequence (O96013 whole entry): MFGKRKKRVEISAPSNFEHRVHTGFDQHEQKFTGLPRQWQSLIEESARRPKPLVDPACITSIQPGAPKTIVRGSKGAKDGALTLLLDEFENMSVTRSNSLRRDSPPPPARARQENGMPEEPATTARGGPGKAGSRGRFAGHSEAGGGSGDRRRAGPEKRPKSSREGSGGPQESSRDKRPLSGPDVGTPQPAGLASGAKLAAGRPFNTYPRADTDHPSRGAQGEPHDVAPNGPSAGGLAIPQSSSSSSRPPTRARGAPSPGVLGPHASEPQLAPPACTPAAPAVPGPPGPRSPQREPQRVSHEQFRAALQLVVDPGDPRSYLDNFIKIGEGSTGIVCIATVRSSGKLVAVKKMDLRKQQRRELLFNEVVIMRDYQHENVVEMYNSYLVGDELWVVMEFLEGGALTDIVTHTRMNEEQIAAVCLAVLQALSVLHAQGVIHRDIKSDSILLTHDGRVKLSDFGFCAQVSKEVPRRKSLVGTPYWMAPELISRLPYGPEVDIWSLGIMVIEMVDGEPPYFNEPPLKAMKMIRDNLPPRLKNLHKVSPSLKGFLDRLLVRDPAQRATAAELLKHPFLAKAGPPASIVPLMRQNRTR
Protocol: as §1

[1] = 10 μM ATP, read-out: PAK1 IC50 (10 μM ATP)
[2] = 1 mM ATP, read-out: PAK1 IC50 (1 mM ATP)

PAK1, sequence (Q13153 whole entry): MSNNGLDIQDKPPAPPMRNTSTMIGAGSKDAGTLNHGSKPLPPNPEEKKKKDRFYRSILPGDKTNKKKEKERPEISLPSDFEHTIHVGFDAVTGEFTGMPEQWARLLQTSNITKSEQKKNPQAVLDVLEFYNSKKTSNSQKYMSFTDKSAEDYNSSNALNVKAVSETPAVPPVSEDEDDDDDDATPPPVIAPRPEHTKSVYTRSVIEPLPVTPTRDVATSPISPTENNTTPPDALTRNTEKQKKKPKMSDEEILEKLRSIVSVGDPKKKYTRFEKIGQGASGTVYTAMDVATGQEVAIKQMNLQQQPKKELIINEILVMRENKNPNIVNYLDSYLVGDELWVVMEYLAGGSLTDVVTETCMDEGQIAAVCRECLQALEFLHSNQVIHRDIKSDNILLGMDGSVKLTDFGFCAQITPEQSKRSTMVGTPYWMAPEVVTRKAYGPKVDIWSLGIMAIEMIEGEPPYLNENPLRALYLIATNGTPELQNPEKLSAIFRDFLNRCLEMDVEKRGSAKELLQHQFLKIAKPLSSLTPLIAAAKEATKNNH

Structure (SMILES) | IC50 (PAK1; [1]) | IC50 (PAK1; [2]) | IC50 (PAK4)
Cc1nc(-c2ccc(-c3cc4cnc(NC5CC5)nc4n(Cc4cccc(CN)c4)c3=O)c(Cl)c2)no1 | < 0.05 µM | 0.5 to 5 µM | ≥ 5 µM
Cc1nc(-c2ccc(-c3cc4cnc(NC5CCOCC5)nc4n(Cc4ccc5c(c4)CNC5)c3=O)c(Cl)c2)no1 | 0.05 to 0.5 µM | ≥ 5 µM | ≥ 5 µM
Cc1nc(-c2ccc(-c3cc4cnc(NC5CCOCC5)nc4n(CC4CCCN(C)C4)c3=O)c(Cl)c2)no1 (stereo not drawn) | 0.05 to 0.5 µM | ≥ 5 µM | ≥ 5 µM
CCn1c(=O)c(-c2ccc(-c3noc(C)n3)cc2Cl)cc2cnc(NC3COC3)nc21 | 0.05 to 0.5 µM | ≥ 5 µM | ≥ 5 µM
Cc1nc(-c2ccc(-c3cc4cnc(NC5CCOCC5)nc4n(Cc4ccccc4)c3=O)c(Cl)c2)no1 | 0.5 to 5 µM | ≥ 5 µM | ≥ 5 µM
Cc1nc(-c2ccc(-c3cc4cnc(NC5CCOCC5)nc4n(CC(=O)NC4CCNCC4)c3=O)c(Cl)c2)no1 | 0.5 to 5 µM | ≥ 5 µM | ≥ 5 µM
Cc1nc(-c2ccc(-c3cc4cnc(NC5CCOCC5)nc4n(CC4CCCNC4)c3=O)c(Cl)c2)no1 (stereo not drawn) | 0.05 to 0.5 µM | ≥ 5 µM | ≥ 5 µM
CCn1c(=O)c(-c2ccc(-c3noc(C)n3)cc2Cl)cc2cnc(N[C@@H]3C[C@H]3C)nc21 | 0.05 to 0.5 µM | < 0.05 µM | < 0.05 µM
CCn1c(=O)c(-c2ccc(-c3noc(C)n3)cc2Cl)cc2cnc(NCC(=O)NC)nc21 | 0.5 to 5 µM | ≥ 5 µM | ≥ 5 µM
CCN1CCC(CCNc2ncc3cc(-c4ccc(-c5noc(C)n5)cc4Cl)c(=O)n(CC)c3n2)CC1 | 0.05 to 0.5 µM | 0.5 to 5 µM | ≥ 5 µM
Cc1nc(-c2ccc(-c3cc4cnc(NC5CCOCC5)nc4n(C4CCNC4)c3=O)c(Cl)c2)no1 (stereo not drawn) | 0.5 to 5 µM | ≥ 5 µM | ≥ 5 µM
CCn1c(=O)c(-c2ccc(-c3noc(C)n3)cc2Cl)cc2cnc(NN3CCOCC3)nc21 | 0.5 to 5 µM | ≥ 5 µM | ≥ 5 µM
Cc1nc(-c2ccc(-c3cc4cnc(NC5CCOCC5)nc4n(CC(=O)NCc4ccncc4)c3=O)c(Cl)c2)no1 [drawing 348] | 0.05 to 0.5 µM | ≥ 5 µM | ≥ 5 µM
CCn1c(=O)c(-c2ccc(-c3noc(C)n3)cc2Cl)cc2cnc(NC3CCOC(C)(C)C3)nc21 (stereo not drawn) | 0.05 to 0.5 µM | ≥ 5 µM | ≥ 5 µM
CCCCn1c(=O)c(-c2ccc(-c3noc(C)n3)cc2Cl)cc2cnc(NC3CCOCC3)nc21 | 0.05 to 0.5 µM | ≥ 5 µM | ≥ 5 µM
CCn1c(=O)c(-c2ccc(-c3noc(C)n3)cc2Cl)cc2cnc(NCC3CCOC3)nc21 (stereo not drawn) | 0.5 to 5 µM | ≥ 5 µM | ≥ 5 µM
Cc1nc(-c2ccc(-c3cc4cnc(NC5CCOCC5)nc4n(Cc4ccc(CCN)cc4)c3=O)c(Cl)c2)no1 [drawing 338] | < 0.05 µM | 0.5 to 5 µM | ≥ 5 µM
Cc1nc(-c2ccc(-c3cc4cnc(NC5CCOCC5)nc4n(CC(=O)NCCCN)c3=O)c(Cl)c2)no1 | < 0.05 µM | 0.5 to 5 µM | ≥ 5 µM
Cc1nc(-c2ccc(-c3cc4cnc(NC5CCOCC5)nc4n(CC(=O)N4CCCC(CN)C4)c3=O)c(Cl)c2)no1 (stereo not drawn) | 0.05 to 0.5 µM | ≥ 5 µM | ≥ 5 µM
Cc1nc(-c2ccc(-c3cc4cnc(NC5CCOCC5)nc4n(C4CC4)c3=O)c(Cl)c2)no1 | 0.05 to 0.5 µM | ≥ 5 µM | ≥ 5 µM
CCn1c(=O)c(-c2ccc(-c3noc(C)n3)cc2Cl)cc2cnc(NC3COC4(CCCC4)C3)nc21 (stereo not drawn) | 0.5 to 5 µM | ≥ 5 µM | 0.5 to 5 µM
Cc1nc(-c2ccc(-c3cc4cnc(NC5CCOCC5)nc4n(CC4CCN(C)CC4)c3=O)c(Cl)c2)no1 | 0.05 to 0.5 µM | ≥ 5 µM | ≥ 5 µM
CCn1c(=O)c(-c2ccc(-c3noc(C)n3)cc2Cl)cc2cnc(NC3CCN(C)C3=O)nc21 (stereo not drawn) | ≥ 5 µM | ≥ 5 µM | ≥ 5 µM

Structure (SMILES) | IC50 (PAK1; [1]) | IC50 (PAK1; [2]) | IC50 (PAK4)
CCn1c(=O)c(-c2ccc(-c3noc(C)n3)cc2Cl)cc2cnc(NC3CC3c3ccccc3)nc21 (stereo not drawn) | 0.5 to 5 µM | 0.5 to 5 µM | 0.5 to 5 µM
CCn1c(=O)c(-c2ccc(-c3noc(C)n3)cc2Cl)cc2cnc(NCCCN(C)C)nc21 | 0.5 to 5 µM | ≥ 5 µM | ≥ 5 µM
Cc1nc(-c2ccc(-c3cc4cnc(NC5CCOCC5)nc4n(Cc4c(F)cccc4C(F)(F)F)c3=O)c(Cl)c2)no1 | 0.05 to 0.5 µM | 0.5 to 5 µM | ≥ 5 µM
Cc1nc(-c2ccc(-c3cc4cnc(NC5CCOCC5)nc4n(C4CCN(CCN)C4)c3=O)c(Cl)c2)no1 (stereo not drawn) | 0.05 to 0.5 µM | ≥ 5 µM | ≥ 5 µM
Cc1nc(-c2ccc(-c3cc4cnc(NC5CCOCC5)nc4n(CC(=O)N4CCC(N)CC4)c3=O)c(Cl)c2)no1 | 0.05 to 0.5 µM | ≥ 5 µM | ≥ 5 µM
Cc1nc(-c2ccc(-c3cc4cnc(NC5CCOCC5)nc4n(-c4ccccc4)c3=O)c(Cl)c2)no1 | 0.05 to 0.5 µM | ≥ 5 µM | ≥ 5 µM
CCn1c(=O)c(-c2ccc(-c3noc(C)n3)cc2Cl)cc2cnc(NCc3cccnc3)nc21 | 0.5 to 5 µM | ≥ 5 µM | ≥ 5 µM
CCn1c(=O)c(-c2ccc(-c3noc(C)n3)cc2Cl)cc2cnc(NCC(=O)N(C)C)nc21 | ≥ 5 µM | ≥ 5 µM | 0.05 to 0.5 µM
CCn1c(=O)c(-c2ccc(-c3noc(C)n3)cc2Cl)cc2cnc(N[C@H]3COC[C@H]3O)nc21 | 0.5 to 5 µM | ≥ 5 µM | ≥ 5 µM
Cc1nc(-c2ccc(-c3cc4cnc(NC5CCOCC5)nc4n(CC(=O)NC4CCNC4)c3=O)c(Cl)c2)no1 (stereo not drawn) [drawing 346] | 0.05 to 0.5 µM | ≥ 5 µM | ≥ 5 µM
CCN1CCC(Cn2c(=O)c(-c3ccc(-c4noc(C)n4)cc3Cl)cc3cnc(NC4CCOCC4)nc32)CC1 | 0.05 to 0.5 µM | ≥ 5 µM | ≥ 5 µM
Cc1nc(-c2ccc(-c3cc4cnc(NC5CC5)nc4n(Cc4cccc(CN(C)C)c4)c3=O)c(Cl)c2)no1 | 0.05 to 0.5 µM | 0.5 to 5 µM | ≥ 5 µM
Cc1nc(-c2ccc(-c3cc4cnc(NC5CCOCC5)nc4n(CC(=O)N4CCCC(N)C4)c3=O)c(Cl)c2)no1 (stereo not drawn) | 0.05 to 0.5 µM | ≥ 5 µM | ≥ 5 µM
Cc1nc(-c2ccc(-c3cc4cnc(NC5CCOCC5)nc4n(CC(=O)N4CCC(CN)CC4)c3=O)c(Cl)c2)no1 [drawing 352] | < 0.05 µM | ≥ 5 µM | ≥ 5 µM
CCNc1ncc2cc(-c3ccc(-c4noc(C)n4)cc3Cl)c(=O)n(CC)c2n1 | 0.5 to 5 µM | ≥ 5 µM | ≥ 5 µM
CCn1c(=O)c(-c2ccc(-c3noc(C)n3)cc2Cl)cc2cnc(NCC3CCCO3)nc21 (stereo not drawn) | 0.5 to 5 µM | ≥ 5 µM | ≥ 5 µM
CCn1c(=O)c(-c2ccc(-c3noc(C)n3)cc2Cl)cc2cnc(NCCC3CCN(C)CC3)nc21 [drawing 361] | 0.05 to 0.5 µM | ≥ 5 µM | ≥ 5 µM
CCn1c(=O)c(-c2ccc(-c3noc(C)n3)cc2Cl)cc2cnc(NC3(C)CC3)nc21 | 0.5 to 5 µM | ≥ 5 µM | ≥ 5 µM
Cc1nc(-c2ccc(-c3cc4cnc(N[C@H]5C[C@@H]5C)nc4n(CC4CCNCC4)c3=O)c(Cl)c2)no1 | < 0.05 µM | 0.5 to 5 µM | ≥ 5 µM
CCn1c(=O)c(-c2ccc(-c3noc(C)n3)cc2Cl)cc2cnc(NCCCOC)nc21 | 0.5 to 5 µM | ≥ 5 µM | ≥ 5 µM
Cc1nc(-c2ccc(-c3cc4cnc(NC5CCOCC5)nc4n(Cc4cccc(CCN)c4)c3=O)c(Cl)c2)no1 [drawing 339] | < 0.05 µM | 0.05 to 0.5 µM | ≥ 5 µM
CCn1c(=O)c(-c2ccc(-c3noc(C)n3)cc2Cl)cc2cnc(NCc3ccncc3)nc21 | 0.05 to 0.5 µM | ≥ 5 µM | ≥ 5 µM
CCn1c(=O)c(-c2ccc(-c3noc(C)n3)cc2Cl)cc2cnc(NCc3ccccn3)nc21 | 0.5 to 5 µM | ≥ 5 µM | ≥ 5 µM
